Reference: the COVID Moonshot data (paper PMC7615835)
“And” between values parts separate entries of the source, which are not always exact repeats. Identical values can stand only once.

Molecular target: SARS-CoV-2 Main Protease (SARS-CoV-2) (UniProt P0DTD1)

| Structure (SMILES) | IC50 |
| --- | --- |
| O=C(Nc1cncc2ccccc12)C1CCOc2c(OCc3ccccn3)cc(Cl)cc21 (stereo not drawn) | 6.43 µM |
| O=C(Cc1cc(Cl)cc(OC2CC(=O)N2)c1)Nc1cc(=O)[nH]c2ccccc12 (stereo not drawn) | 83.3 µM |
| N#Cc1nccc(Cl)n1 | > 99.5 µM |
| O=C(Cc1cc(Cl)cc(N2CCc3c([nH]c4ccccc34)C2)c1)Nc1cncc2ccccc12 | 2.02 µM |
| Nc1nn(C(=O)Cc2cccc(Cl)c2)c2ccccc12 | > 99.5 µM |
| O=C(Cc1cc(Cl)cc(Br)c1)Nc1cncc2ccccc12 | > 9.95 µM |
| Nc1nn(C(=O)Cc2cccc(Cl)c2)c2cccnc12 | > 99.5 µM |
| C=CC(=O)N(c1ccc(C(F)(F)F)cc1)C(C(=O)NCCc1cccc(F)c1)c1cncc(C)c1 (stereo not drawn) | 24.3 µM |
| O=C(Cc1cccc(Cl)c1)Nc1n[nH]c2ccccc12 | > 99.5 µM |
| Cc1ccncc1NC(=O)Nc1cccc(Cl)c1 | 68 µM and 61 µM |
| CCCNC(=O)CN1CC(C(=O)Nc2cncc3cc(S(C)(=O)=O)ccc23)c2cc(Cl)ccc2C1=O (stereo not drawn) | 0.127 µM and 0.209 µM |
| O=C(Cc1cncc2ccccc12)Nc1cc(Cl)cc(OC2CCC(=O)N2)c1 (stereo not drawn) | 38.4 µM |
| CCOC(=O)c1cc(-c2ccccc2)sc1NC(=O)Cc1csc(-c2ccccc2)n1 | 4.66 µM |
| N#Cc1cc(F)c(Nc2cc(Cl)cc(CC(=O)Nc3cncc4ccccc34)c2)cc1F | 2.12 µM |
| O=C(CC1(C(=O)Nc2cncc3ccccc23)CCOc2ccc(Cl)cc21)N1CCCC1c1nn[nH]n1 (stereo not drawn) | 7.98 µM |
| O=C(CN1CC(C(=O)Nc2cncc3ccccc23)c2cc(Cl)ccc2C1=O)NCC(F)(F)F (stereo not drawn) | 0.34 µM |
| O=C1CC(NC(=O)Cc2cccc(Cl)c2)C(=O)N1 (stereo not drawn) | > 99.5 µM |
| Cc1ccncc1NC(=O)C(C)c1cccc(C#N)c1 (stereo not drawn) | 55.2 µM and 54.7 µM |
| C=CC(=O)N(c1cc(C(C)(C)C)on1)C(C(=O)NCCc1cccc(F)c1)c1cncc(C#N)c1 (stereo not drawn) | > 99.5 µM |
| O=CNc1ccc(C(=O)NC(c2ccccc2)C2CCOCC2)cc1 (stereo not drawn) | > 99.5 µM |
| N#Cc1ccc(CN2CCC(C3CCNC3)CC2)cc1 (stereo not drawn) | 2.06 µM |
| Cc1cc(C)n(-c2cc(Cl)cc(CC(=O)Nc3cncc4ccccc34)c2)c(=O)c1CN | 2.41 µM |
| CC(C)(C)c1ccc(N(C(=O)c2cnc(C3CCOC3)s2)C(C(=O)NCCc2cccc(F)c2)c2cccnc2)cc1 (stereo not drawn) | > 99.5 µM |
| O=C(NCCc1cccc(F)c1)C(c1cccnc1)N(C(=O)c1cocn1)c1ccc2c(c1)CCC(=O)N2CC(F)F (stereo not drawn) | 24.5 µM |
| C=CC(=O)N(c1ccc(C(C)(C)C)cc1)[C@H](C(=O)NCCc1cccc(F)c1)c1cccnc1 (stereo in doubt) | 2.86 µM |

| Structure (SMILES) | IC50 |
| --- | --- |
| CC(C)(C)c1ccc(N(C(=O)c2ccco2)C(C(=O)NCc2ccccc2)c2cccnc2)cc1 (stereo not drawn) | 4.36 µM |
| CC(C)(C)c1ccc(N(C(=O)c2cocn2)C(C(=O)NCCc2cccc(F)c2)c2cnccn2)cc1 (stereo not drawn) | 1.21 µM |
| COc1c(Cl)cccc1Nc1cc(Cl)cc(CC(=O)Nc2cncc3ccccc23)c1 | 1.68 µM |
| CC(C)(C)c1ccc(N(C(=O)c2cocn2)C(C(=O)NCC2CCOC2)c2cccnc2)cc1 (stereo not drawn) | 5.42 µM |
| Cn1ncc(NC(=O)C2CCOc3ccc(Cl)cc32)c1C(F)F (stereo not drawn) | > 99.5 µM |
| Cc1cccc(C)c1N(C(=O)CN1CCNCC1)c1cc(Cl)cc(CC(=O)Nc2cncc3ccccc23)c1 | 2.74 µM |
| Cc1ccncc1NC(=O)Cc1cccc(F)c1 | 96.9 µM and 94.8 µM |
| COc1ccccc1OCCNC(=O)C1CC(=O)Nc2ccccc21 (stereo not drawn) | > 99.5 µM |
| COc1nc(Br)cnc1Nc1cc(Cl)cc(CC(=O)Nc2cncc3ccccc23)c1 | 2.05 µM |
| Cc1ncc(CN2Cc3ccc(Cl)cc3C(C(=O)Nc3cncc4ccc(F)cc34)C2)[nH]1 (stereo not drawn) | 0.307 µM |
| O=C(Cc1cc(Cl)cc(Nc2ncnc3c2ncn3CCO)c1)Nc1cncc2ccccc12 | 1.82 µM |
| Cc1cccc2nc(NC3CCN(c4ccc5nncn5n4)C3)sc12 (stereo not drawn) | > 99.5 µM |
| O=C(CN(C(=O)Cn1ccnn1)c1ccc(-c2ccccn2)cc1)N1CCNCC1 | > 99.5 µM |
| CC(C)(C)OC(=O)CNC(=O)C(c1cccnc1)N(C(=O)c1cocn1)c1ccc(C(C)(C)C)cc1 (stereo not drawn) | 8.18 µM |
| O=C1CCN(S(=O)(=O)c2cccs2)CC1 | > 99.5 µM |
| Cc1cc(I)ccc1Nc1cc(Cl)cc(CC(=O)Nc2cncc3ccccc23)c1 | 2.45 µM |
| O=C(NCCNc1ccccc1)c1cc(=O)[nH]c2ccccc12 | > 99.5 µM |
| O=C(NCCc1cccc(F)c1)C(c1cccnc1)N(C(=O)c1cocn1)C1COc2cc(F)ccc21 (stereo not drawn) | > 99.5 µM |
| O=C(NCCc1cccc(F)c1)C(c1cccnc1)N(C(=O)c1cocn1)C1COc2ccccc2C1 (stereo not drawn) | > 99.5 µM |
| O=C(Cc1cc(Cl)cc(Nc2ccc(Br)c([N+](=O)[O-])c2)c1)Nc1cncc2ccccc12 | 2.06 µM |
| O=C(Cc1cc(Cl)cc(Nc2ccc([N+](=O)[O-])cc2C(F)(F)F)c1)Nc1cncc2ccccc12 | 2.01 µM |
| CCC(=O)Nc1ccc(N(Cc2ccccc2)C(=O)Nn2nnc3ccccc32)cc1 | 3.59 µM |
| N#CC1(CS(=O)(=O)N2Cc3ccc(Cl)cc3C3(CCN(c4cncc5ccc(OCCCN6CCCC6)cc45)C3=O)C2)CC1 (stereo not drawn) | 0.128 µM |
| O=C(NCCc1cccc(F)c1)C(c1cccnc1)N(C(=O)c1cocn1)c1ccc(C2(O)COC2)cc1 (stereo not drawn) | > 99.5 µM |
| O=C(Cc1cncc2ccccc12)N(CCC1CCCCC1)c1cccc(Cl)c1 | 2.11 µM |

| Structure (SMILES) | IC50 |
| --- | --- |
| O=C(CCl)N1CCN(C(c2ccccc2)C2CCOCC2)CC1 (stereo not drawn) | 28.4 µM and 15.1 µM |
| O=C(Cc1ccc(Cl)c(F)c1)Nc1cncc2ccccc12 | 2.03 µM |
| O=C(NCCc1cccc(F)c1)C(c1cccnc1)N(C(=O)c1cocn1)C1COC2(CCCC2)C1 (stereo not drawn) | > 99.5 µM |
| O=C(Cc1cc(Cl)cc(Nc2cc(Br)cc(C(F)(F)F)c2)c1)Nc1cncc2ccccc12 | 1.87 µM |
| NC(=O)C1Cc2ccccc2CN1CC(=O)N1CCN(c2ncccn2)CC1 (stereo not drawn) | > 99.5 µM |
| COc1cc(CNc2cc(Cl)cc(CC(=O)Nc3cncc4ccccc34)c2)cc(OC)c1 | 2.87 µM |
| CS(=O)(=O)c1ccc(N(C(=O)c2cocn2)C(C(=O)NCCc2cccc(F)c2)c2cccnc2)cc1 (stereo not drawn) | 75.9 µM |
| Cc1ccc(S(=O)(=O)N2CCN(C(=O)c3cc(=O)[nH]c4cc(F)ccc34)CC2)c(C)c1 | > 99.5 µM |
| CC1(C(=O)Nc2cncc3ccccc23)CN(CC2CC2)S(=O)(=O)c2ccc(Cl)cc21 (stereo not drawn) | 0.634 µM |
| Cc1nc(C)c(S(=O)(=O)NCC2CCCC3CC23)s1 (stereo not drawn) | > 99.5 µM |
| Cc1c(Cl)ccc2c1[C@H](C(=O)Nc1cncc3ccccc13)CCO2 (stereo in doubt) | 3.67 µM |
| Cc1ccncc1N1CCC(c2cccc(Cl)c2)S1(=O)=O (stereo not drawn) | 85 µM |
| O=C(CC1(C(=O)Nc2cncc3ccccc23)CCOc2ccc(Cl)cc21)N1CCCCC1c1ccn[nH]1 (stereo not drawn) | 0.616 µM |
| O=C(Cc1cc(Cl)cc(Nc2ccc(Br)c(C(F)(F)F)c2)c1)Nc1cncc2ccccc12 | 2.31 µM |
| COC(CNC(=O)C(c1cccnc1)N(C(=O)c1cocn1)c1ccc(C(C)(C)C)cc1)OC (stereo not drawn) | 7.91 µM |
| Cc1ccc(Nc2cc(Cl)cc(CC(=O)Nc3cncc4ccccc34)c2)cc1Br | 2.07 µM |
| CC(C)(C)c1ccc(N(C(=O)c2cscn2)C(C(=O)NCCc2cccc(F)c2)c2cccnc2)cc1 (stereo not drawn) | 0.891 µM |
| CCNC(=O)CN1CC(C(=O)Nc2cncc3cc(S(C)(=O)=O)ccc23)c2cc(Cl)ccc2C1=O (stereo not drawn) | 0.0675 µM and 0.134 µM |
| CC(C)(C)c1ccc(N(C(=O)c2ccco2)C(C(=O)NCCN2CCOCC2)c2cccnc2)cc1 (stereo not drawn) | 2.19 µM |
| O=C(Nc1cncc2ccccc12)C1CCNc2cc(Cl)c(Cl)cc21 (stereo not drawn) | 0.154 µM |
| Cc1ccnc(N)c1NC(=O)C1CCOc2ccc(Cl)cc21 (stereo not drawn) | 69.5 µM |
| CC(C)(C)c1ccc(N(C(=O)c2cocn2)C(C(=O)NCCN2CCOCC2)c2cccnc2)cc1 (stereo not drawn) | 82.5 µM |
| CN(C)C(=O)C(CNC(=O)[C@@H](c1ccccc1)N1Cc2ccccc2C1=O)c1ccccc1 (stereo in doubt) | > 99.5 µM |
| COc1cccc(CC(=O)Nc2cncc3ccccc23)c1 | 30.5 µM |
| COC(=O)/C=C/C(=O)N(C(=O)[C@H]1CCOc2ccc(Cl)cc21)c1cncc2ccccc12 (stereo in doubt) | 4.36 µM |

| Structure (SMILES) | IC50 |
| --- | --- |
| CS(=O)(=O)c1ccc2c(NC(=O)C3CN(S(=O)(=O)CC4(C#N)CC4)Cc4ccc(Cl)cc43)cncc2c1 (stereo not drawn) | 0.0582 µM and 0.117 µM |
| O=C(Cc1cc(Cl)cc(Nc2cc(Cl)c(O)c(Cl)c2)c1)Nc1cncc2ccccc12 | 6.9 µM |
| O=C(NCCc1cccc(F)c1)C(c1cccnc1)N(C(=O)c1cnc[nH]1)C1CCC2OCCC2C1 (stereo not drawn) | > 99 µM |
| CCOC(=O)c1ccc(NC(=O)CC2SC(=O)N(c3ccccc3)C2=O)cc1 (stereo not drawn) | 2.4 µM |
| COCCN1CC(C(=O)Nc2cncc3ccccc23)c2cc(Cl)ccc2C1=O (stereo not drawn) | 0.267 µM |
| C[C@@H]1C[C@H](C(=O)Nc2cncc3ccccc23)c2cc(Cl)ccc2O1 (stereo in doubt) | 0.679 µM |
| COc1ccc([C@H](C)Nc2cc(Cl)cc(CC(=O)Nc3cncc4ccccc34)c2)cc1 (stereo in doubt) | 4.73 µM |
| COc1ccc(Nc2cc(Cl)cc(CC(=O)Nc3cncc4ccccc34)c2)cc1C(F)(F)F | 1.89 µM |
| NCc1cn(CC(=O)N(CC(=O)N2CCNCC2)c2ccc(-c3ccccc3)cc2)nn1 | > 99.5 µM |
| COCc1csc(-c2nnc(-c3sc(-c4ccccc4)nc3C)o2)c1 | > 99.5 µM |
| CC(C)(C)c1ccc(N(C(=O)c2cocn2)C(C(=O)NCC(=O)Nc2cccc([N+](=O)[O-])c2)c2cccnc2)cc1 (stereo not drawn) | 14.4 µM |
| CCNC(=O)CN1CC2(CCN(c3cncc4ccccc34)C2=O)c2cc(Cl)ccc2S1(=O)=O (stereo not drawn) | 0.275 µM |
| CC(C)(C)c1ccc(N(C(=O)c2nc(CN3CCOCC3)cs2)C(C(=O)NCCc2cccc(F)c2)c2cccnc2)cc1 (stereo not drawn) | > 99.5 µM |
| C=CC(=O)N(c1ccc(C(C)(C)C)cc1)C(C(=O)NCCCSC)c1cccnc1 (stereo not drawn) | 25.5 µM |
| CC(C)(C)c1ccc(N(C(=O)c2ccco2)C(C(=O)Nc2ccccc2)c2cccnc2)cc1 (stereo not drawn) | 11.2 µM |
| Cc1c(Br)cnc(Nc2cc(Cl)cc(CC(=O)Nc3cncc4ccccc34)c2)c1[N+](=O)[O-] | 2.17 µM |
| N#Cc1c(Cl)cccc1Nc1cc(Cl)cc(CC(=O)Nc2cncc3ccccc23)c1 | 1.93 µM |
| O=C1N(c2cncc3ccccc23)CCC12CN(S(=O)(=O)N1CCC1)Cc1ccc(Cl)cc12 (stereo not drawn) | 0.33 µM |
| O=C(Cc1cc(Cl)cc(N2CCN(c3ccc(Br)cn3)CC2)c1)Nc1cncc2ccccc12 | 3.17 µM |
| COc1ccc2c(c1)c(N)nn2C(=O)Cc1cccc(Cl)c1 | > 99.5 µM |
| CN(C)C(=O)c1cc2c(NC(=O)C3CCOc4ccc(Cl)cc43)cncc2s1 (stereo not drawn) | 0.399 µM |
| Cc1ccc(S(=O)(=O)N2CCN(C(=O)CCl)CC2)cc1 | 21 µM |
| N#Cc1ccc(N(C(=O)c2ccco2)C(C(=O)NCCc2cccc(F)c2)c2cccnc2)cc1 (stereo not drawn) | 10.4 µM |
